Measurements published in ChEMBL document CHEMBL4831525, “Design, synthesis and biological evaluation of quinazoline derivatives as potent and selective FGFR4 inhibitors” (Eur J Med Chem, 2021).
Blank lines part the entries; values can stand above or below the compound they belong to. Active and inactive are the calls of the source. The rule behind the calls is not given here.

Tests used:
Huh-7 = assay: cells; details: Homo sapiens, Huh-7, 72 h
Description: Antiproliferative activity against human Huh-7 cells assessed as inhibition of cell proliferation measured after 72 hrs by SRB assay

[1] = Stability of the compound in rat liver microsomes assessed as parent compound remaining incubated for 60 mins in presence of NADPH by LC-MS analysis; assay type: ADME, Microsome; details: read-out: Stability
Hep 3B2 = assay: Induction of apoptosis in human Hep3B cells assessed as increase in cleaved PARP level at 3 to 20 uM by Western blot analysis; assay type: functional, cell-based; details: dose 3-20 µM
[2] = target: T1, Fibroblast growth factor receptor 4 (Homo sapiens, UniProt P22455); assay: Inhibition of N-terminal GST fusion tagged human FGFR4 cytoplasmic domain (460 to 802 end residues) expressed in baculovirus expression system at 1 nM preincubated for 10 mins followed by substrate addition and further incubated for 30 mins in presence of ATP at Km concentration by caliper mobility shift assay relative to control; details: time 40.0 min
Target sequence in this assay (P22455 22-802 limits assumed): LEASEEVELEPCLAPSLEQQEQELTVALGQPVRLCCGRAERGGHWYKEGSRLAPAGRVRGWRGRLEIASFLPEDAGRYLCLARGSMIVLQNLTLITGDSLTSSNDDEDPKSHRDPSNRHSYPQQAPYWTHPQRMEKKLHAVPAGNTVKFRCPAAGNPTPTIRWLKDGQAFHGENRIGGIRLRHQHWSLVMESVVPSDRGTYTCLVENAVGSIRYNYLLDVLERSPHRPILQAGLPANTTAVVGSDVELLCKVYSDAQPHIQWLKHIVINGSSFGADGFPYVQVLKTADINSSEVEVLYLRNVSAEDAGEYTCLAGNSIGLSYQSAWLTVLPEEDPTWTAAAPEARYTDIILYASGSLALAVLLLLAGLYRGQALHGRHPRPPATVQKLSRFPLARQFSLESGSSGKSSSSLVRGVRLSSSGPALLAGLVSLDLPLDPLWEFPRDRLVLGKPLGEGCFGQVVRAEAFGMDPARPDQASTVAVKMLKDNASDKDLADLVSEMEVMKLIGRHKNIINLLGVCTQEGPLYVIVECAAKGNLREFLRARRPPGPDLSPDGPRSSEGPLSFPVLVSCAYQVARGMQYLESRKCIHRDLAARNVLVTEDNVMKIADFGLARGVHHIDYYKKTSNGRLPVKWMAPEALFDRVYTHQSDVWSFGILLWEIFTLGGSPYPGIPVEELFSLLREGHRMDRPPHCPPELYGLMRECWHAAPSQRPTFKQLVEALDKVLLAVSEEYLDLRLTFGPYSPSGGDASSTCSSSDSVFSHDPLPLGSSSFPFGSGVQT

[3] = target: Fibroblast growth factor receptor 3 (Homo sapiens, UniProt P22607); assay: Inhibition of FGFR3 (unknown origin)
[4] = target: T1, Fibroblast growth factor receptor 4
Target sequence in this assay (P22455 whole entry, the tested form may be a part): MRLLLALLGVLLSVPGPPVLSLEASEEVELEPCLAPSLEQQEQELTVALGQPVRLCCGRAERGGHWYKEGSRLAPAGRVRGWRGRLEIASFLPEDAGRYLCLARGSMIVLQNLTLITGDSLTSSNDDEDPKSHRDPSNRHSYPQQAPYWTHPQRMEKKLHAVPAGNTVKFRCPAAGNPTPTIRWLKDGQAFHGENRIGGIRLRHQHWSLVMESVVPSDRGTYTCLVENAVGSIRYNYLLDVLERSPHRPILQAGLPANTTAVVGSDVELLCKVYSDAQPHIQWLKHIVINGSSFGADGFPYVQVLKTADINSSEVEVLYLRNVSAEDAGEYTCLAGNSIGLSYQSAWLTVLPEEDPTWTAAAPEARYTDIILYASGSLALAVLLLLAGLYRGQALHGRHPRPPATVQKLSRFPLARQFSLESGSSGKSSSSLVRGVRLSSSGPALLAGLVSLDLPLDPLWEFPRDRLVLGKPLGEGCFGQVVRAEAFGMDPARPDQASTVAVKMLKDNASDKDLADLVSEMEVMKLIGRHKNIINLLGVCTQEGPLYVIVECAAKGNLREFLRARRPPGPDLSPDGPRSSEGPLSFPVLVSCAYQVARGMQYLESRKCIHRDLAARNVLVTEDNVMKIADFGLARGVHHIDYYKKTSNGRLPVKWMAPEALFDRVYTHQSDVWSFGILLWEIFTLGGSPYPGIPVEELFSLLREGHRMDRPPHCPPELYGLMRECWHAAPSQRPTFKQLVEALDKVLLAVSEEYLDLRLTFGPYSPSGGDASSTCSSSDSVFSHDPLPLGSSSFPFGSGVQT
Description: Inhibition of FGFR4 (unknown origin)

[5] = target: Fibroblast growth factor receptor 2 (Homo sapiens, UniProt P21802); assay: Inhibition of FGFR2 (unknown origin)
[6] = Stability of the compound in rat plasma assessed as parent compound remaining incubated for 60 mins; assay type: ADME, cell-free; details: read-out: Stability
[7] = target: Fibroblast growth factor receptor 1 (Homo sapiens, UniProt P11362); assay: Inhibition of FGFR1 (unknown origin)
Sequence of Fibroblast growth factor receptor 1 (P11362 whole entry): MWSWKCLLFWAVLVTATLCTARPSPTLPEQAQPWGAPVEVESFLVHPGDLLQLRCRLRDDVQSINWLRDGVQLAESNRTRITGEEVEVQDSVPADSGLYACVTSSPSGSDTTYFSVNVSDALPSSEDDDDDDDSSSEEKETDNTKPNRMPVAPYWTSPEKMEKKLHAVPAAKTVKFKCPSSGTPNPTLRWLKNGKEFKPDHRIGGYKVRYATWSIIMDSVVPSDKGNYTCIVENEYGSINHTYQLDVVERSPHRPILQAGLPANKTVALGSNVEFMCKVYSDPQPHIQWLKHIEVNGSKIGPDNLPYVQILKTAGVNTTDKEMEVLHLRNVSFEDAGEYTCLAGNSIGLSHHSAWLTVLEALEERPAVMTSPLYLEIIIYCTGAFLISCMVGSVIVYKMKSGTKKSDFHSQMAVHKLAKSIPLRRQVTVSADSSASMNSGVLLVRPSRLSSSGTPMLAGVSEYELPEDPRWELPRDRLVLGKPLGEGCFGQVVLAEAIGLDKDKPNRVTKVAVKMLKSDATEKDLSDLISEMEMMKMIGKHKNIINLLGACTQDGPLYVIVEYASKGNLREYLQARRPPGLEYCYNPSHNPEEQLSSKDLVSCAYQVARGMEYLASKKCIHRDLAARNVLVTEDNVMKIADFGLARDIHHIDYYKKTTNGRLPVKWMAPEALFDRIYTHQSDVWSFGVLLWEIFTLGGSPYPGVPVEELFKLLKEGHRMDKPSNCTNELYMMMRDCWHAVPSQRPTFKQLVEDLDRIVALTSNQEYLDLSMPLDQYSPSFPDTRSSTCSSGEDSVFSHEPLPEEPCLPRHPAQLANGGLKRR

Sequence of Fibroblast growth factor receptor 2 (P21802 whole entry): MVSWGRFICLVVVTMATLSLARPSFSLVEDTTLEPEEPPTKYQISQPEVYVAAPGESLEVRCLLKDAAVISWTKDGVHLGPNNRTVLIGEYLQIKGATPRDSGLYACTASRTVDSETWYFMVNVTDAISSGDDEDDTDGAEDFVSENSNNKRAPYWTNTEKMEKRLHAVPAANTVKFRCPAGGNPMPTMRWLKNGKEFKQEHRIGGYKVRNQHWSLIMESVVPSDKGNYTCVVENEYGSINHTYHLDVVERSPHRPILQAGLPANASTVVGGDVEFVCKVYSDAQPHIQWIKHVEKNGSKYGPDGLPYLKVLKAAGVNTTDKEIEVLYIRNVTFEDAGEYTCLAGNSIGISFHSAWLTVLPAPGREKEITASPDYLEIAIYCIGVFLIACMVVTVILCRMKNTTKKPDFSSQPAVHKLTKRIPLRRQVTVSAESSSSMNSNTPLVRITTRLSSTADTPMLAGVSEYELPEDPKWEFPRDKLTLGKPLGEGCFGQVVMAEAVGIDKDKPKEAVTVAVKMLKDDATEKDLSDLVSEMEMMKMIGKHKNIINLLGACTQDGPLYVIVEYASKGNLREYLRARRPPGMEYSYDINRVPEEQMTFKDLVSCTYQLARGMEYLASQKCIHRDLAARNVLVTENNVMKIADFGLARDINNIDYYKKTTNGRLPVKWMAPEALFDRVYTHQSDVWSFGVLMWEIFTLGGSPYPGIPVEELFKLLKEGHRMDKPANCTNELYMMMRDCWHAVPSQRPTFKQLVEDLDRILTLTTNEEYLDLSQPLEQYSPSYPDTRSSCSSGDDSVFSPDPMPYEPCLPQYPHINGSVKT
Sequence of Fibroblast growth factor receptor 3 (P22607 whole entry): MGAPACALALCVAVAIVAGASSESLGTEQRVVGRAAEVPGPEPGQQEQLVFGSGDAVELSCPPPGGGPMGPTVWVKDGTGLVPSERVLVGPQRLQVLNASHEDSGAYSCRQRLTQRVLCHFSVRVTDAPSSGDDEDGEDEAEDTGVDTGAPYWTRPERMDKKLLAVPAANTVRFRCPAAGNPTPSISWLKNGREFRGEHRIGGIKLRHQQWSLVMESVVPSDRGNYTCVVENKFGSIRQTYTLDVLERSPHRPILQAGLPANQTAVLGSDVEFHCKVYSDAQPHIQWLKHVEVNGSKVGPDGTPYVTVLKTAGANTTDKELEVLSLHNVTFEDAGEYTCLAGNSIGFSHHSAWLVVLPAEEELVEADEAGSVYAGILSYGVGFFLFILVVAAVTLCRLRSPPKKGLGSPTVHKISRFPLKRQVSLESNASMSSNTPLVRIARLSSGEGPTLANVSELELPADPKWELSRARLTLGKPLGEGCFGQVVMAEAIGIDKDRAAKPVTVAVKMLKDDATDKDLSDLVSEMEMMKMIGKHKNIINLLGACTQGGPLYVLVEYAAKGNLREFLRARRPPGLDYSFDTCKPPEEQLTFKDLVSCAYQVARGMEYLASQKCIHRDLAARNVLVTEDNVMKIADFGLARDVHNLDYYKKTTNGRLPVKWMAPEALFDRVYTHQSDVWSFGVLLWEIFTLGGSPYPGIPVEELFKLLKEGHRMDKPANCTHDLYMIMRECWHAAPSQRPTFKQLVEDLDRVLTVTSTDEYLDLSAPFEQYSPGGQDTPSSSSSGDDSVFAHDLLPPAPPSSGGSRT

Compound: C=CC(=O)Nc1cc(CCCN2CCCC2)cc(C)c1Nc1ncc2cc(-c3c(Cl)c(OC)cc(OC)c3Cl)ccc2n1
- IC50 (Huh-7): 4.26 µM

Compound: C=CC(=O)Nc1cccc(C)c1Nc1ncc2cc(-c3c(Cl)c(OC)cc(OC)c3Cl)ccc2n1
- remaining at 1 h [1]: 15%
- Activity (Hep 3B2): Active
- IC50 (Huh-7): 0.929 µM

Compound: C=CC(=O)N[C@H]1CCOC[C@H]1Nc1ncc2cc(-c3c(Cl)c(OC)cc(OC)c3Cl)ccc2n1 [FISOGATINIB]
- IC50 [3]: 2.2 µM
- IC50 [4]: 0.005 µM
- IC50 [5]: 1.2 µM

Compound: C=CC(=O)Nc1cc(CCN2CCN(C3COC3)CC2)cc(C)c1Nc1ncc2cc(-c3c(Cl)c(OC)cc(OC)c3Cl)ccc2n1
- IC50 (Huh-7): 8.48 µM

Compound: C=CC(=O)Nc1cc(CCN(CC)CCC)cc(C)c1Nc1ncc2cc(-c3c(Cl)c(OC)cc(OC)c3Cl)ccc2n1
- IC50 (Huh-7): 4.33 µM

Compound: C=CC(=O)Nc1cc(S(=O)(=O)NC(=O)C=C)ccc1Nc1ncc2cc(-c3c(Cl)c(OC)cc(OC)c3Cl)ccc2n1
- IC50 (Huh-7): 4.75 µM

Compound: C=CC(=O)Nc1cc(SC)ccc1Nc1ncc2cc(-c3c(Cl)c(OC)cc(OC)c3Cl)ccc2n1
- IC50 [3]: 0.079 µM
- IC50 [7]: 0.039 µM
- IC50 (Huh-7): 0.936 µM
- IC50 [5]: 0.024 µM

Compound: C=CC(=O)Nc1cc(CCN2CCC(NC(=O)OC(C)(C)C)CC2)cc(C)c1Nc1ncc2cc(-c3c(Cl)c(OC)cc(OC)c3Cl)ccc2n1
- IC50 (Huh-7): 4.48 µM

Compound: C=CC(=O)Nc1cc(CCN2CCc3ccccc3C2)cc(C)c1Nc1ncc2cc(-c3c(Cl)c(OC)cc(OC)c3Cl)ccc2n1
- IC50 (Huh-7): 4.45 µM

Now from value to compound, other results behind:

- inhibition [2]: 55%
- IC50 (Huh-7): 2.24 µM
Compound: C=CC(=O)Nc1cc(CCCN(C)C)cc(C)c1Nc1ncc2cc(-c3c(Cl)c(OC)cc(OC)c3Cl)ccc2n1

- IC50 (Huh-7): 2.41 µM
Compound: C=CC(=O)Nc1cc(CCO)cc(C)c1Nc1ncc2cc(-c3c(Cl)c(OC)cc(OC)c3Cl)ccc2n1

- remaining at 1 h [6]: 80%
- remaining at 1 h [1]: 50%
- IC50 [3]: 3.92 µM
- IC50 [7]: 0.787 µM
- IC50 (Huh-7): 1.67 µM
- IC50 [5]: 0.341 µM
Compound: C=CC(=O)Nc1cc(S(N)(=O)=O)cc(C)c1Nc1ncc2cc(-c3c(Cl)c(OC)cc(OC)c3Cl)ccc2n1
- Activity (Hep 3B2): Active

- IC50 (Huh-7): 4.52 µM
Compound: C=CC(=O)Nc1cc(CCN2CCCC2)cc(C)c1Nc1ncc2cc(-c3c(Cl)c(OC)cc(OC)c3Cl)ccc2n1

- IC50 [3]: 0.102 µM
- IC50 [7]: 0.028 µM
- IC50 (Huh-7): 2.16 µM
- IC50 [5]: 0.015 µM
Compound: C=CC(=O)Nc1cc(S(C)(=O)=O)ccc1Nc1ncc2cc(-c3c(Cl)c(OC)cc(OC)c3Cl)ccc2n1

- IC50 (Huh-7): 4.18 µM
Compound: C=CC(=O)Nc1cc(CCN2CCN(CCOC)CC2)cc(C)c1Nc1ncc2cc(-c3c(Cl)c(OC)cc(OC)c3Cl)ccc2n1

- IC50 (Huh-7): 7.14 µM
Compound: C=CC(=O)Nc1cc(CCN2CCN(C)CC2)cc(C)c1Nc1ncc2cc(-c3c(Cl)c(OC)cc(OC)c3Cl)ccc2n1

- IC50 (Huh-7): 3.56 µM
Compound: C=CC(=O)Nc1cc(CCN2CCCC2CN2CCCC2)cc(C)c1Nc1ncc2cc(-c3c(Cl)c(OC)cc(OC)c3Cl)ccc2n1 (centres undefined)

- IC50 (Huh-7): 13.3 µM
Compound: C=CC(=O)Nc1cc(CCN2CCOCC2)cc(C)c1Nc1ncc2cc(-c3c(Cl)c(OC)cc(OC)c3Cl)ccc2n1

- IC50 [3]: 3.87 µM
- IC50 [7]: 0.886 µM
- IC50 (Huh-7): 1.94 µM
- IC50 [5]: 0.379 µM
Compound: C=CC(=O)Nc1cc(S(C)(=O)=O)cc(C)c1Nc1ncc2cc(-c3c(Cl)c(OC)cc(OC)c3Cl)ccc2n1
